What was measured:
Substance-K receptor = molecular target: T1, Substance-K receptor (Homo sapiens, UniProt P21452); test: Binding affinity against recombinant human tachykinin receptor 2 in CHO cells using [3H]NKA as a radioligand; assay type: cell-based
T1 sequence (P21452 whole entry): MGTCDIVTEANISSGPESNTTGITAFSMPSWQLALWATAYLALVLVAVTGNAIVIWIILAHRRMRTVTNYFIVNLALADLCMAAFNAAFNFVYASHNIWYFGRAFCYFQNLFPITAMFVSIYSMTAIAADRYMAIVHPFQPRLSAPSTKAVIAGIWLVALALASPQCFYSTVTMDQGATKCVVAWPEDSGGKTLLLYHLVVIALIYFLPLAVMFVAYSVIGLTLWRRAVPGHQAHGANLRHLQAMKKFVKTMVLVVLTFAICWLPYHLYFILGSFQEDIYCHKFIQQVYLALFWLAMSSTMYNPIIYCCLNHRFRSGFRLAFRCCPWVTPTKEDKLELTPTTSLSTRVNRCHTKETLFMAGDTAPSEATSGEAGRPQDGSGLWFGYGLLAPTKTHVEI

Substance-P receptor = Substance-P receptor (Homo sapiens, UniProt P25103); test: Binding affinity against recombinant human tachykinin receptor 1 in CHO cells using [3H]-Sar SP as a radioligand; assay type: cell-based
Chain of Substance-P receptor (P25103 whole entry): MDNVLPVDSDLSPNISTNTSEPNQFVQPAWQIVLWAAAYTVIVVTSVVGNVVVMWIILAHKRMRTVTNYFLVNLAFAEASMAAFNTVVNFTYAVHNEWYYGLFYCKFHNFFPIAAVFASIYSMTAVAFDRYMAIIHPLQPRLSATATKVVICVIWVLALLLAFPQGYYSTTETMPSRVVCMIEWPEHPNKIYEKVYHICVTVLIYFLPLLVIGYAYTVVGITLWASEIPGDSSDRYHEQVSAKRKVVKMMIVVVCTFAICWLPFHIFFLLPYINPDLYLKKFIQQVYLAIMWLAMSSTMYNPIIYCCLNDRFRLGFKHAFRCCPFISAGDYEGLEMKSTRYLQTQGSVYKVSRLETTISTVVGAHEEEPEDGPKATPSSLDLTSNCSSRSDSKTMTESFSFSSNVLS

Ki (Substance-K receptor) [nM]	Ki (Substance-P receptor) [nM]	Structure (SMILES)
24	38	CN(C)/N=C(\COCc1cc(C(F)(F)F)cc(C(F)(F)F)c1)C(CCN1CCC(O)(c2ccccc2)CC1)c1ccc(Cl)c(Cl)c1 (centres undefined)
1.4	1.5	CN(C/C(=N\OCC#N)C(CCN1CCC(N2CCCCC2=O)CC1)c1ccc(Cl)c(Cl)c1)C(=O)c1cc(Cl)cc(Cl)c1 (centres undefined)
236	15	O=C(COCc1cc(C(F)(F)F)cc(C(F)(F)F)c1)C(CCN1CCC(O)(c2ccccc2)CC1)c1ccc(Cl)c(Cl)c1 (centres undefined)
23	1.9	CN(C/C(=N\OCC(C)(C)O)C(CCN1CCC(N2CCCCC2=O)CC1)c1ccc(Cl)c(Cl)c1)C(=O)c1cc(Cl)cc(Cl)c1 (centres undefined)
4.5	1.2	CN(C/C(=N\OCCCNS(C)(=O)=O)C(CCN1CCC(N2CCCCC2=O)CC1)c1ccc(Cl)c(Cl)c1)C(=O)c1cc(Cl)cc(Cl)c1 (centres undefined)
25	1.7	CN(C/C(=N\OCCCn1cccn1)C(CCN1CCC(N2CCCCC2=O)CC1)c1ccc(Cl)c(Cl)c1)C(=O)c1cc(Cl)cc(Cl)c1 (centres undefined)
215	100	C=CCO/N=C(\COCc1cc(C(F)(F)F)cc(C(F)(F)F)c1)C(CCN1CCC(O)(c2ccccc2)CC1)c1ccc(Cl)c(Cl)c1 (centres undefined)
45	24	CNC(=O)CO/N=C(\COCc1cc(C(F)(F)F)cc(C(F)(F)F)c1)C(CCN1CCC(O)(c2ccccc2)CC1)c1ccc(Cl)c(Cl)c1 (centres undefined)
48	2.2	COCCNC(=O)CO/N=C(\CN(C)C(=O)c1cc(Cl)cc(Cl)c1)C(CCN1CCC(N2CCCCC2=O)CC1)c1ccc(Cl)c(Cl)c1 (centres undefined)
350	25	CONC(COCc1cc(C(F)(F)F)cc(C(F)(F)F)c1)C(CCN1CCC(O)(c2ccccc2)CC1)c1ccc(Cl)c(Cl)c1 (centres undefined)
11.5	7.4	CSCCCO/N=C(\CN(C)C(=O)c1cc(Cl)cc(Cl)c1)C(CCN1CCC(N2CCCCC2=O)CC1)c1ccc(Cl)c(Cl)c1 (centres undefined)
0.8	0.8	CN(C/C(=N\OCF)C(CCN1CCC(N2CCCCC2=O)CC1)c1ccc(Cl)c(Cl)c1)C(=O)c1cc(Cl)cc(Cl)c1 (centres undefined)
19	15	N#CO/N=C(\COCc1cc(C(F)(F)F)cc(C(F)(F)F)c1)C(CCN1CCC(O)(c2ccccc2)CC1)c1ccc(Cl)c(Cl)c1 (centres undefined)
3.2	0.9	CN(C/C(=N\OCCCS(C)(=O)=O)C(CCN1CCC(N2CCCCC2=O)CC1)c1ccc(Cl)c(Cl)c1)C(=O)c1cc(Cl)cc(Cl)c1 (centres undefined)
198	25	COC(=O)CO/N=C(\COCc1cc(C(F)(F)F)cc(C(F)(F)F)c1)C(CCN1CCC(O)(c2ccccc2)CC1)c1ccc(Cl)c(Cl)c1 (centres undefined)
5.4	2.8	CN(C/C(=N\OCCn1ccnc1)C(CCN1CCC(N2CCCCC2=O)CC1)c1ccc(Cl)c(Cl)c1)C(=O)c1cc(Cl)cc(Cl)c1 (centres undefined)
4.8	0.7	CN(C/C(=N\OCCCn1cncn1)C(CCN1CCC(N2CCCCC2=O)CC1)c1ccc(Cl)c(Cl)c1)C(=O)c1cc(Cl)cc(Cl)c1 (centres undefined)
0.5	0.4	CN(C/C(=N\OCC(=N)NO)[C@H](CCN1CCC(N2CCCCC2=O)CC1)c1ccc(Cl)c(Cl)c1)C(=O)c1cc(Cl)cc(Cl)c1
42	49	COCO/N=C(\COCc1cc(C(F)(F)F)cc(C(F)(F)F)c1)C(CCN1CCC(O)(c2ccccc2)CC1)c1ccc(Cl)c(Cl)c1 (centres undefined)
2.7	3.3	CN(C/C(=N\OCCCS(=O)(=O)O)C(CCN1CCC(N2CCCCC2=O)CC1)c1ccc(Cl)c(Cl)c1)C(=O)c1cc(Cl)cc(Cl)c1 (centres undefined)
3.5	0.8	CN(C/C(=N\OCCC[S+](C)[O-])C(CCN1CCC(N2CCCCC2=O)CC1)c1ccc(Cl)c(Cl)c1)C(=O)c1cc(Cl)cc(Cl)c1 (centres undefined)

Ki (Substance-K receptor) [nM]	Ki (Substance-P receptor) [nM]	Structure (SMILES)
394	0.7	CN(C/C(=N\OCC(=O)O)C(CCN1CCC(N2CCCCC2=O)CC1)c1ccc(Cl)c(Cl)c1)C(=O)c1cc(Cl)cc(Cl)c1 (centres undefined)
1.5	0.7	CN(C/C(=N\OCCCO)C(CCN1CCC(N2CCCCC2=O)CC1)c1ccc(Cl)c(Cl)c1)C(=O)c1cc(Cl)cc(Cl)c1 (centres undefined)
6.8	1.6	CN(C/C(=N\OCCCn1ccnc1)C(CCN1CCC(N2CCCCC2=O)CC1)c1ccc(Cl)c(Cl)c1)C(=O)c1cc(Cl)cc(Cl)c1 (centres undefined)
2	0.9	CN(C/C(=N\OCC(N)=O)C(CCN1CCC(N2CCCCC2=O)CC1)c1ccc(Cl)c(Cl)c1)C(=O)c1cc(Cl)cc(Cl)c1 (centres undefined)
8.8	0.7	CN(C/C(=N\OCCCN)C(CCN1CCC(N2CCCCC2=O)CC1)c1ccc(Cl)c(Cl)c1)C(=O)c1cc(Cl)cc(Cl)c1 (centres undefined)
8.5	2.2	CN(C/C(=N\OCc1c[nH]cn1)C(CCN1CCC(N2CCCCC2=O)CC1)c1ccc(Cl)c(Cl)c1)C(=O)c1cc(Cl)cc(Cl)c1 (centres undefined)
5	1.7	CN(C/C(=N\OC(F)F)C(CCN1CCC(N2CCCCC2=O)CC1)c1ccc(Cl)c(Cl)c1)C(=O)c1cc(Cl)cc(Cl)c1 (centres undefined)
58	17	NC(=O)CO/N=C(\COCc1cc(C(F)(F)F)cc(C(F)(F)F)c1)C(CCN1CCC(O)(c2ccccc2)CC1)c1ccc(Cl)c(Cl)c1 (centres undefined)
1.7	1	CNC(=O)NCCCO/N=C(\CN(C)C(=O)c1cc(Cl)cc(Cl)c1)C(CCN1CCC(N2CCCCC2=O)CC1)c1ccc(Cl)c(Cl)c1 (centres undefined)
50	7	COCCO/N=C(\COCc1cc(C(F)(F)F)cc(C(F)(F)F)c1)C(CCN1CCC(O)(c2ccccc2)CC1)c1ccc(Cl)c(Cl)c1 (centres undefined)
0.8	0.6	CN(C/C(=N\OCCO)C(CCN1CCC(N2CCCCC2=O)CC1)c1ccc(Cl)c(Cl)c1)C(=O)c1cc(Cl)cc(Cl)c1 (centres undefined)
19	17	N=C(CO/N=C(\COCc1cc(C(F)(F)F)cc(C(F)(F)F)c1)C(CCN1CCC(O)(c2ccccc2)CC1)c1ccc(Cl)c(Cl)c1)NO (centres undefined)
16.7	4.7	COC(=O)CO/N=C(\CN(C)C(=O)c1cc(Cl)cc(Cl)c1)C(CCN1CCC(N2CCCCC2=O)CC1)c1ccc(Cl)c(Cl)c1 (centres undefined)
14	20	OCCO/N=C(\COCc1cc(C(F)(F)F)cc(C(F)(F)F)c1)C(CCN1CCC(O)(c2ccccc2)CC1)c1ccc(Cl)c(Cl)c1 (centres undefined)
590	1.8	CN(C/C(=N\OCCC[N+](C)(C)C)C(CCN1CCC(N2CCCCC2=O)CC1)c1ccc(Cl)c(Cl)c1)C(=O)c1cc(Cl)cc(Cl)c1 (centres undefined)
1.6	4.7	CO/N=C(\CN(C)C(=O)c1cc(Cl)cc(Cl)c1)C(CCN1CCC(N2CCCCC2=O)CC1)c1ccc(Cl)c(Cl)c1 (centres undefined)
107	81	CCO/N=C(\COCc1cc(C(F)(F)F)cc(C(F)(F)F)c1)C(CCN1CCC(O)(c2ccccc2)CC1)c1ccc(Cl)c(Cl)c1 (centres undefined)
50	0.5	CN(C/C(=N\OCCN1CCNCC1)C(CCN1CCC(N2CCCCC2=O)CC1)c1ccc(Cl)c(Cl)c1)C(=O)c1cc(Cl)cc(Cl)c1 (centres undefined)
3.1	2.4	COCCO/N=C(\CN(C)C(=O)c1cc(Cl)cc(Cl)c1)C(CCN1CCC(N2CCCCC2=O)CC1)c1ccc(Cl)c(Cl)c1 (centres undefined)
17	0.8	CN(C/C(=N\OCCCn1cnnn1)C(CCN1CCC(N2CCCCC2=O)CC1)c1ccc(Cl)c(Cl)c1)C(=O)c1cc(Cl)cc(Cl)c1 (centres undefined)
4.2	1.2	CN(C/C(=N\OCC(=O)NO)C(CCN1CCC(N2CCCCC2=O)CC1)c1ccc(Cl)c(Cl)c1)C(=O)c1cc(Cl)cc(Cl)c1 (centres undefined)
